In US20230398130A1, “METHODS AND COMPOSITIONS FOR DIFFERENTIATING STEM CELLS” (Massachusetts Institute of Technology, priority 2020, published 2023):

Legend:
ISC-enriched organoids [1] = assay: Primary screen, 384-well 2.5-D organoid differentiation (ENR+CD, 6 days): basal lysozyme secretion (LYZ.NS); assay type: cell-based, murine; details: primary screen; for Dose.FC.LYZ.NS: FC vs plate median; for Z.LYZ.NS: standard z score; for SSMD.LYZ.NS: strictly standardized mean difference
Description: (§1) High-throughput screening.

ISC-enriched organoids [2] = assay: Primary screen, 384-well 2.5-D organoid differentiation (ENR+CD, 6 days): carbachol-induced lysozyme secretion (LYZ.S); assay type: cell-based, murine; details: primary screen; for Dose.FC.LYZ.S: FC vs plate median; for Z.LYZ.S: standard z score; for SSMD.LYZ.S: strictly standardized mean difference
Description: as §1

ISC-enriched organoids [3] = assay: Primary screen, 384-well 2.5-D organoid differentiation (ENR+CD, 6 days, Target Selective Inhibitor Library, vs whole-plate median): ATP (CellTiter-Glo 3D, CTG); details: primary screen; for Dose.FC.CTG: FC vs plate median; for Z.CTG: standard z score; for SSMD.CTG: strictly standardized mean difference
[4] = 1st of the 4 dose lines of the treatment (dose not given)
[5] = 2nd of the 4 dose lines of the treatment (dose not given)
[6] = 3rd of the 4 dose lines of the treatment (dose not given)
[7] = 4th of the 4 dose lines of the treatment (dose not given)

Structure (SMILES)	Dose.FC.LYZ.NS (ISC-enriched organoids [1]; Dose 0.08 uM) [log 2 fold change]	Z.LYZ.NS (ISC-enriched organoids [1]; Dose 0.08 uM)	Dose.FC.LYZ.NS (ISC-enriched organoids [1]; Dose 0.40 uM) [log 2 fold change]	Z.LYZ.NS (ISC-enriched organoids [1]; Dose 0.40 uM)	Dose.FC.LYZ.NS (ISC-enriched organoids [1]; Dose 2.00 uM) [log 2 fold change]	Z.LYZ.NS (ISC-enriched organoids [1]; Dose 2.00 uM)	Dose.FC.LYZ.NS (ISC-enriched organoids [1]; Dose 10.00 uM) [log 2 fold change]	Z.LYZ.NS (ISC-enriched organoids [1]; Dose 10.00 uM)	Dose.FC.LYZ.S (ISC-enriched organoids [2]; Dose 0.08 uM) [log 2 fold change]	Dose.FC.LYZ.S (ISC-enriched organoids [2]; Dose 0.40 uM) [log 2 fold change]	Dose.FC.LYZ.S (ISC-enriched organoids [2]; Dose 2.00 uM) [log 2 fold change]	Dose.FC.LYZ.S (ISC-enriched organoids [2]; Dose 10.00 uM) [log 2 fold change]	Dose.FC.CTG (ISC-enriched organoids [3]; Dose 0.08 uM) [log 2 fold change]	Z.CTG (ISC-enriched organoids [3]; Dose 0.08 uM)	Dose.FC.CTG (ISC-enriched organoids [3]; Dose 0.40 uM) [log 2 fold change]	Z.CTG (ISC-enriched organoids [3]; Dose 0.40 uM)	Dose.FC.CTG (ISC-enriched organoids [3]; Dose 2.00 uM) [log 2 fold change]	Z.CTG (ISC-enriched organoids [3]; Dose 2.00 uM)	Dose.FC.CTG (ISC-enriched organoids [3]; Dose 10.00 uM) [log 2 fold change]	Z.CTG (ISC-enriched organoids [3]; Dose 10.00 uM)	other results
CC(C)c1noc(N2CCC(COc3ccc(-c4ccc(S(C)(=O)=O)cc4)nc3)CC2)n1 [GSK1292263]	0.078	0.681	0.050	0.434	0.028	0.240	0.020	0.173	0.111	0.101	0.060	0.027	0.161	0.384	0.192	0.458	0.224	0.535	0.196	0.468	–
CCc1cc(Nc2nccc(-c3c(-c4ccc(OC)c(C(=O)Nc5c(F)cccc5F)c4)nc4ccccn34)n2)c(OC)cc1N1CCC(N2CCN(S(C)(=O)=O)CC2)CC1 [GSK1904529A]	0.102	0.890	0.112	0.977	−0.179	−1.557	−0.163	−1.419	0.133	−0.047	−0.225	−0.276	0.202	0.484	−0.071	−0.170	−0.570	−1.361	−0.691	−1.649	–
Cc1cccc(CC(=O)N2CCc3c2ccc(-c2cn(C)c4ncnc(N)c24)c3F)n1 [GSK2656157]	−0.031	−0.267	−0.045	−0.396	−0.033	−0.291	−0.012	−0.102	−0.008	0.060	−0.020	0.090	0.068	0.162	0.115	0.274	0.083	0.197	0.119	0.284	–
CCOC(=O)CCNc1cc(N2CCc3ccccc3CC2)nc(-c2ccccn2)n1.Cl [GSK J4 HCl]	0.058	0.508	0.050	0.433	0.018	0.153	−0.001	−0.006	0.086	0.109	0.041	−0.002	0.124	0.297	0.099	0.237	0.002	0.006	0.233	0.558	–
Cc1cc(SCc2sc(-c3ccc(C(F)(F)F)c(F)c3)nc2C)ccc1OCC(=O)O [GW0742]	0.052	0.454	0.045	0.390	0.026	0.231	−0.152	−1.322	0.048	0.106	0.014	−0.183	−0.751	−1.794	−0.489	−1.167	−0.249	−0.596	−0.451	−1.078	–
COc1ccc(COc2ccc(Cc3cnc(N)nc3N)cc2OC)cc1 [GW2580]	0.006	0.056	0.014	0.118	−0.060	−0.525	−0.018	−0.158	−0.013	0.020	−0.060	−0.026	−0.042	−0.101	−0.284	−0.678	0.029	0.068	−0.038	−0.091	–
Cl.O=C(O)Cc1cccc(OCCCN(Cc2cccc(C(F)(F)F)c2Cl)CC(c2ccccc2)c2ccccc2)c1 [GW3965 HCl]	0.059	0.516	0.002	0.013	0.077	0.673	−0.009	−0.080	0.091	0.074	0.179	−0.047	0.138	0.330	0.201	0.481	0.229	0.546	−0.078	−0.186	–
CC(C)c1onc(-c2c(Cl)cccc2Cl)c1COc1ccc(/C=C/c2cccc(C(=O)O)c2)c(Cl)c1 [GW4064]	0.170	1.476	−0.022	−0.194	0.022	0.196	−0.059	−0.516	0.028	0.097	0.000	−0.071	−0.134	−0.320	0.140	0.334	−0.145	−0.346	−0.157	−0.375	–
O=C(O)CCc1ccc(NCc2cccc(Oc3ccccc3)c2)cc1 [GW9508]	0.075	0.650	0.019	0.169	−0.011	−0.092	−0.040	−0.350	0.067	0.049	0.000	−0.045	0.063	0.151	0.174	0.417	−0.001	−0.003	−0.059	−0.140	SSMD.LYZ.NS (ISC-enriched organoids [1]; [4]): 0.536; SSMD.LYZ.NS (ISC-enriched organoids [1]; [5]): 0.122; SSMD.LYZ.NS (ISC-enriched organoids [1]; [6]): −0.064; SSMD.LYZ.NS (ISC-enriched organoids [1]; [7]): −0.358; Z.LYZ.S (ISC-enriched organoids [2]; [4]): 0.434; Z.LYZ.S (ISC-enriched organoids [2]; [5]): 0.316; Z.LYZ.S (ISC-enriched organoids [2]; [6]): 0.003; Z.LYZ.S (ISC-enriched organoids [2]; [7]): −0.289; SSMD.LYZ.S (ISC-enriched organoids [2]; [4]): 0.329; SSMD.LYZ.S (ISC-enriched organoids [2]; [5]): 0.225; SSMD.LYZ.S (ISC-enriched organoids [2]; [6]): 0.002; SSMD.LYZ.S (ISC-enriched organoids [2]; [7]): −0.176; SSMD.CTG (ISC-enriched organoids [3]; [4]): 0.128; SSMD.CTG (ISC-enriched organoids [3]; [5]): 0.384; SSMD.CTG (ISC-enriched organoids [3]; [6]): −0.003; SSMD.CTG (ISC-enriched organoids [3]; [7]): −0.134
